In patent US20110212960A1, “NEW COMPOUNDS FOR THE TREATMENT OF CNS DISORDER” (BOEHRINGER INGELHEIM INTERNATIONAL GMBH, priority 2009, published 2011):

Experiments:
human PDE9A2 = target: T1, human PDE9A2 (Homo sapiens, UniProt O76083); experiment: PDE9A2 enzymatic activity assay (scintillation proximity assay); format: biochemical; conditions: for inhibition at 10 µM: at 10 micromolar concentration, read-out: % inhibition of PDE9A2; for IC50: specific IC50 value lies within the given range, read-out: IC50 within range [nanomolar (nM)]
T1 construct: made in house; host or cells: Sf9 insect cells (infected; crude lysate used as enzyme source)
Experimental: The PDE9A2 enzymatic activity assay was run as scintillation proximity assay (SPA), in general according to the protocol of the manufacturer (Amersham Biosciences, product number: TRKQ 7100).
As enzyme source, lysate (PBS with 1% Triton X-100 supplemented with protease inhibitors, cell debris removed by centrifugation at 13.000 rpm for 30 min) of SF 9 cell expressing the human PDE9A2 was used. The total protein amount included in the assay varied upon infection and production efficacy of the SF9 cells and lay in the range of 0.1-100 ng.
In general, the assay conditions were as follows: • total assay volume: 40 microliter • protein amount: 0.1-50 ng • substrate concentration (cGMP): 20 nanomolar; ˜1 mCi/l • incubation time: 60 min at room temperature • final DMSO concentration: 0.2-1%
The assays were run in 384-well format. The test reagents as well as the enzyme and the substrate were diluted in assay buffer. The assay buffer contained 50 mM Tris, 8.3 mM MgCl2, 1.7 mM EGTA, 0.1% BSA, 0.05% Tween 20; the pH of assay buffer was adjusted to 7.5. The reaction was stopped by applying a PDE9 specific inhibitor (e.g. compounds according to WO04099210 or WO04099211) in excess.
The activity of the positive control (minus the negative control=background) is set to 100% and activity in the presence of test compound is expressed relative to these 100%.

human PDE9A = human PDE9A (Homo sapiens, UniProt O76083); conditions: concentrations of up to 100 micromolar; cited from earlier work
Chain of human PDE9A (O76083 whole entry): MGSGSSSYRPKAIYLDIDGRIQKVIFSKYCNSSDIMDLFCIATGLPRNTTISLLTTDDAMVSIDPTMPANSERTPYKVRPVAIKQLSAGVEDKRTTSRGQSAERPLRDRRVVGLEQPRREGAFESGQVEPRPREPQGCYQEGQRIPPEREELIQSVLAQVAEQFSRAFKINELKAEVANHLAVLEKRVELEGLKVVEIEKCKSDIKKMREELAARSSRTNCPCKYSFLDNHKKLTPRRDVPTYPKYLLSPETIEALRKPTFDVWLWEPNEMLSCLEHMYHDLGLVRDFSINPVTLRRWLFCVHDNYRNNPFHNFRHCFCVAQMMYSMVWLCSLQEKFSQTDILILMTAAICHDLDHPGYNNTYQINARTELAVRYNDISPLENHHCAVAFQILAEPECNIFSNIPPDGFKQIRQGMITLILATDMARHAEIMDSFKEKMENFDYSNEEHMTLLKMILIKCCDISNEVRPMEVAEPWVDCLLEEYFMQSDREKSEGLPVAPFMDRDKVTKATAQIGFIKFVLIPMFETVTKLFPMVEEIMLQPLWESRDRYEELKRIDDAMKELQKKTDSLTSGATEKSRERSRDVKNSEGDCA

T1 sequence (O76083 1-533 isoform O76083-2): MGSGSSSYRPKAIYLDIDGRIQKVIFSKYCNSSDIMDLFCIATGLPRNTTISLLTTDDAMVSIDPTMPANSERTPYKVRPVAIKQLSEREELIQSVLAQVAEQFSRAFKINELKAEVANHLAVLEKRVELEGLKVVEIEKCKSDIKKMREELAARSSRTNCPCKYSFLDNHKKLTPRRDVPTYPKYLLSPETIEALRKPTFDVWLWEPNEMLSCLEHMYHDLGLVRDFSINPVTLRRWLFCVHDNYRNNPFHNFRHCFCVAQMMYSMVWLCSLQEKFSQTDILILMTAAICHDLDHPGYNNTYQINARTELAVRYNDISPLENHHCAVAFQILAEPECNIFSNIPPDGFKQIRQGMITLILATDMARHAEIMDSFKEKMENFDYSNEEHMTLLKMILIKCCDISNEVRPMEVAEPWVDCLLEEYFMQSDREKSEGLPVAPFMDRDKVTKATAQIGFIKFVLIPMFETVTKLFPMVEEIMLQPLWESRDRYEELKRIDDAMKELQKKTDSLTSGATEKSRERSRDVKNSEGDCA

Compound	inhibition at 10 µM (human PDE9A2) [%]	IC50 (human PDE9A2) [nM]	inhibition on the isolated enzyme (human PDE9A)
O=C([C@H]1CCCC[C@@H]1c1nc2c(cnn2C2CCC(F)(F)CC2)c(=O)[nH]1)N1CCOCC1 (racemic) [Example 20]	71	201 to 5000	
O=C([C@H]1CCCC[C@@H]1c1nc2c(cnn2C2CCC(F)(F)CC2)c(=O)[nH]1)N1CCCC1 (racemic) [Example 21]	66	1 to 200	
C#CCNC(=O)C1CCC1c1nc2c(cnn2C2CCC(F)(F)CC2)c(=O)[nH]1 (racemic) [Example 22]	90	1 to 200	
O=C([C@H]1C[C@@H]1c1nc2c(cnn2C2CCC(F)(F)CC2)c(=O)[nH]1)N1CCCCC1 (racemic) [Example 23]	92	201 to 5000	
O=C([C@H]1CC[C@@H]1c1nc2c(cnn2C2CCCC2)c(=O)[nH]1)N1CCCCC1 (racemic) [Example 24]	101	1 to 200	
O=C([C@H]1CCC[C@@H]1c1nc2c(cnn2C2CCC(F)(F)CC2)c(=O)[nH]1)N1CCCCC1 (racemic) [Example 25]	95	201 to 5000	
O=C(C1CCCC1c1nc2c(cnn2C2CCCC2)c(=O)[nH]1)N1CCCCC1 (racemic) [Example 26]	99	1 to 200	
CCOC(=O)[C@H]1CC[C@@H]1c1nc2c(cnn2C2CCCC2)c(=O)[nH]1 (racemic) [Example 27]	98	1 to 200	
O=c1[nH]c([C@@H]2CC[C@H]2CN2CC(F)(F)C(F)(F)C2)nc2c1cnn2C1CCC(F)(F)CC1 (racemic) [Example 28]	94	1 to 200	
Cc1noc(C2CCC2c2nc3c(cnn3C3CCC(F)(F)CC3)c(=O)[nH]2)n1 (racemic) [Example 32]	91	1 to 200	
O=c1[nH]c([C@@H]2CC[C@H]2CO)nc2c1cnn2C1CCC(F)(F)CC1 (racemic) [Example 33]	83	201 to 5000	
O=C([C@@H]1CC[C@@H]1c1nc2c(cnn2C2CCC(F)(F)CC2)c(=O)[nH]1)N1CCCCC1 (racemic) [Example 34]	57	201 to 5000	
Cc1ccncc1-n1ncc2c(=O)[nH]c([C@H]3C[C@@H]3C)nc21 (racemic) [Example 36]	90	1 to 200	
O=C(O)[C@H]1CC[C@@H]1c1nc2c(cnn2C2CCC(F)(F)CC2)c(=O)[nH]1 (racemic) [Example 46]	91	1 to 200	
O=c1[nH]c([C@@H]2CC[C@H]2Cn2cccn2)nc2c1cnn2C1CCC(F)(F)CC1 (racemic) [Example 47]	89	201 to 5000	
CCC(CC)n1ncc2c(=O)[nH]c(C3CCCC(C(=O)O)C3)nc21 (single isomer, unassigned) [Example 45]		201 to 5000	
CCOC(=O)[C@H]1C[C@H]1c1nc2c(cnn2C(CC)CC)c(=O)[nH]1 (stereo in doubt) [Example 43]		201 to 5000	
O=c1[nH]c(C2CCC2)nc2c1cnn2C1CCCC1 [Example 29]	98	1 to 200	
O=c1[nH]c(C2CCC2)nc2c1cnn2C1CCC(F)(F)CC1 [Example 30]	96	1 to 200	
Cc1ccncc1-n1ncc2c(=O)[nH]c(C3CCC3)nc21 [Example 31]	80	201 to 5000	
Cc1ccncc1-n1ncc2c(=O)[nH]c(C3CC(C)(C)C3)nc21 [Example 35]	50	201 to 5000	
Cc1ccccc1-n1ncc2c(=O)[nH]c(C3CC3)nc21 [Example 39]		201 to 5000	
CC(=O)Nc1ccc(-c2c[nH]c(=O)cn2)cc1 [SKF94120]			no inhibition
OCCN(CCO)c1nc(N2CCCCC2)c2nc(N(CCO)CCO)nc(N3CCCCC3)c2n1 [dipyridamole]			no inhibition
COc1ccc(C2CNC(=O)C2)cc1OC1CCCC1 (stereo not drawn) [rolipram]			no inhibition
CCOC(=O)C1=C[C@]2(CC)CCCN3CCc4c(n1c1ccccc41)[C@@H]32 [vinpocetine]			no inhibition
